From patent US20110263564A1, “PYRIDINE, BICYCLIC PYRIDINE AND RELATED ANALOGS AS SIRTUIN MODULATORS” (Sirtris Pharmaceuticals, Inc., priority 2008, published 2011)

Target: T1, SIRT1 (Homo sapiens, UniProt Q96EB6)
T1 sequence (Q96EB6 1-747): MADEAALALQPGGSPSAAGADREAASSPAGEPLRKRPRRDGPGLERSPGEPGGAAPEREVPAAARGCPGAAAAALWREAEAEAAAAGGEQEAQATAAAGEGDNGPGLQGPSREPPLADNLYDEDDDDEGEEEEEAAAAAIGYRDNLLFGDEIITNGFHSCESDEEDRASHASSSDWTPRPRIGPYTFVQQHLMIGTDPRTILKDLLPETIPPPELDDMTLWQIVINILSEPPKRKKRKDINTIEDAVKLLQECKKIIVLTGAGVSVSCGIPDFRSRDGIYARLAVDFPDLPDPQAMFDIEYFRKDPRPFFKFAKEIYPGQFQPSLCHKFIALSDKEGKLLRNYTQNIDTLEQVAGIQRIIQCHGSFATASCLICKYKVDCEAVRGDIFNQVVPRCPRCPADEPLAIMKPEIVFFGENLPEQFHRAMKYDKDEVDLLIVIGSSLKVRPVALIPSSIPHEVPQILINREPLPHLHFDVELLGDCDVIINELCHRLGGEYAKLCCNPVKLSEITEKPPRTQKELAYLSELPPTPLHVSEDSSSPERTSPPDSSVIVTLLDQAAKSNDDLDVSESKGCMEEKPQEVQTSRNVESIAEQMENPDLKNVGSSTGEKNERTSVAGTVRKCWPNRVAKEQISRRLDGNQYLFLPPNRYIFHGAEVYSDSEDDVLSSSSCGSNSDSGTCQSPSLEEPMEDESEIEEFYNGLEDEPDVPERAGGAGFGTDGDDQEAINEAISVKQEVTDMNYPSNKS
Test: Mass spectrometry based assay of SIRT1 activity (deacetylation of a p53-based acetylated peptide)
Format: biochemical
Conditions: 10 nM SIRT1, 0.5 μM peptide substrate, 120 μM βNAD+, 25 minutes at 25° C.; for Emax: read-out: % FOLD ACT. (percent maximum fold activation)
From the text: A mass spectrometry based assay was used to identify modulators of SIRT1 activity. The mass spectrometry based assay utilizes a peptide having 20 amino acid residues as follows: Ac-EE-K(biotin)-GQSTSSHSK(Ac)NleSTEG-K(5TMR)-EE-NH2 (SEQ ID NO: 1) wherein K(Ac) is an acetylated lysine residue and Nle is a norleucine. The peptide is labeled with the fluorophore 5TMR (excitation 540 nm/emission 580 nm) at the C-terminus. The sequence of the peptide substrate is based on p53 with several modifications. In addition, the methionine residue naturally present in the sequence was replaced with the norleucine because the methionine may be susceptible to oxidation during synthesis and purification.
The mass spectrometry assay is conducted as follows: 0.5 μM peptide substrate and 120 μM βNAD^+ is incubated with 10 nM SIRT1 for 25 minutes at 25° C. in a reaction buffer (50 mM Tris-acetate pH 8, 137 mM NaCl, 2.7 mM KCl, 1 mM MgCl2, 5 mM DTT, 0.05% BSA). Test compounds may be added to the reaction as described above. […] After the 25 minute incubation with SIRT1, 10 μL of 10% formic acid is added to stop the reaction. Reactions are sealed and frozen for later mass spec analysis. Determination of the mass of the substrate peptide allows for precise determination of the degree of acetylation (i.e. starting material) as compared to deacetylated peptide (product).
A control for inhibition of sirtuin activity is conducted by adding 1 μL of 500 mM nicotinamide as a negative control at the start of the reaction (e.g., permits determination of maximum sirtuin inhibition). A control for activation of sirtuin activity is conducted using 10 nM of sirtuin protein, with 1 μL of DMSO in place of compound, to determine the amount of deacetylation of the substrate at a given timepoint within the linear range of the assay. This timepoint is the same as that used for test compounds and, within the linear range, the endpoint represents a change in velocity.
For the above assay, SIRT1 protein was expressed and purified as follows. […] The protein was expressed by induction with 1 mM IPTG as an N-terminal His-tag fusion protein at 18° C. overnight and harvested at 30,000×g. Cells were lysed with lysozyme in lysis buffer (50 mM Tris-HCl, 2 mM Tris[2-carboxyethyl]phosphine (TCEP), 10 μM ZnCl2, 200 mM NaCl) and further treated with sonication for 10 min for complete lysis. The protein was purified over a Ni-NTA column (Amersham) and fractions containing pure protein were pooled, concentrated and run over a sizing column (Sephadex S200 26/60 global). The peak containing soluble protein was collected and run on an Ion-exchange column (MonoQ). Gradient elution (200 mM-500 mM NaCl) yielded pure protein. This protein was concentrated and dialyzed against dialysis buffer (20 mM Tris-HCl, 2 mM TCEP) overnight. The protein was aliquoted and frozen at −80° C. until further use.
Sirtuin modulating compounds that activated SIRT1 were identified using the assay described above and are shown below in Table 1 for compounds of Formula (III)). The EC1.5 values represent the concentration of test compounds that result in 150% activation of SIRT1. The EC1.5 values for the activating compounds in Table 1 are represented by A (EC1.5<10.0 μM), B (EC1.5 10-25 μM), C (EC1.5>25 μM). The percent maximum fold activation is represented by A (Fold activation>200%) or B (Fold Activation<200%); “NT” means not tested; “ND” mean not determinable.

Row | SMILES | EC1.5 (concentration of test compound that results in 150% activation of SIRT1) | Emax [%]
1 | O=C(NC1CCCc2ccc(-c3cccnc3)nc21)c1cnccn1 (stereo not shown) [Compound 246] | C (EC1.5>25 μM) | –
2 | O=C(NC1CCCc2ccc(-c3ccncc3)nc21)c1cnccn1 (stereo not shown) [Compound 247] | C (EC1.5>25 μM) | –
3 | Cc1ccc(-c2ccc3c(n2)C(NC(=O)c2cnccn2)CCC3)cn1 (stereo not shown) [Compound 248] | C (EC1.5>25 μM) | –
4 | Cc1cc(-c2ccc3c(n2)C(NC(=O)c2cnccn2)CCC3)ccn1 (stereo not shown) [Compound 249] | C (EC1.5>25 μM) | –
5 | CS(=O)(=O)c1cccc(-c2ccc3c(n2)C(NC(=O)c2cnccn2)CCC3)c1 (stereo not shown) [Compound 250] | C (EC1.5>25 μM) | –
6 | O=C(NC1CCCc2ccc(-c3cc(C(F)(F)F)ccc3F)nc21)c1cnccn1 (stereo not shown) [Compound 251] | A (EC1.5<10.0 μM) | > 200
7 | O=C(NC1CCCc2ccc(-c3cccc(OC(F)(F)F)c3)nc21)c1cnccn1 (stereo not shown) [Compound 252] | B (EC1.5 10-25 μM) | > 200
8 | O=C(NC1CCCc2ccc(-c3ccccc3C(F)(F)F)nc21)c1cnccn1 (stereo not shown) [Compound 253] | C (EC1.5>25 μM) | –
9 | O=C(NC1CCCc2ccc(-c3ccc(F)c(C(F)(F)F)c3)nc21)c1cnccn1 (stereo not shown) [Compound 254] | A (EC1.5<10.0 μM) | < 200
10 | O=C(NC1CCCc2ccc(-c3cccc(C(F)(F)F)c3F)nc21)c1cnccn1 (stereo not shown) [Compound 256] | C (EC1.5>25 μM) | –
11 | O=C(NC1CCCc2ccc(-c3cccnc3O)nc21)c1cnccn1 (stereo not shown) [Compound 257] | C (EC1.5>25 μM) | –
12 | CC(C)c1ccccc1-c1ccc2c(n1)C(NC(=O)c1cnccn1)CCC2 (stereo not shown) [Compound 258] | C (EC1.5>25 μM) | –
13 | O=C(NC1CCCc2ccc(-c3ccc(N4CCCC4)cc3)nc21)c1cnccn1 (stereo not shown) [Compound 259] | C (EC1.5>25 μM) | –
14 | O=C(NC1CCCc2ccc(-c3cccc(N4CCCC4)c3)nc21)c1cnccn1 (stereo not shown) [Compound 260] | C (EC1.5>25 μM) | –
15 | O=C(NC1CCCc2ccc(-c3cccc(N4CCOCC4)c3)nc21)c1cnccn1 (stereo not shown) [Compound 261] | C (EC1.5>25 μM) | –
16 | O=C(Nc1ccnc(N2CCCC2)c1)C1CCCc2ccc(-c3cccc(C(F)(F)F)c3F)nc21 (stereo not shown) [Compound 273] | C (EC1.5>25 μM) | –

Continued, values first:

Row | EC1.5 (concentration of test compound that results in 150% activation of SIRT1) | Emax [%] | SMILES
17 | A (EC1.5<10.0 μM) | < 200 | O=C(Nc1ccnc(N2CCCC2)c1)C1CCCc2ccc(-c3cccc(N4CCOCC4)c3)nc21 (stereo not shown) [Compound 278]
18 | C (EC1.5>25 μM) | – | O=C(Nc1nccs1)C1CCCc2ccc(-c3cccc(C(F)(F)F)c3)nc21 (stereo not shown) [Compound 279]
19 | C (EC1.5>25 μM) | – | Cc1nc(NC(=O)C2CCCc3ccc(-c4cccc(C(F)(F)F)c4)nc32)sc1C (stereo not shown) [Compound 281]
20 | B (EC1.5 10-25 μM) | < 200 | Cc1cc(NC(=O)C2CCCc3ccc(-c4cccc(C(F)(F)F)c4)nc32)sn1 (stereo not shown) [Compound 282]
21 | C (EC1.5>25 μM) | – | O=C(Nc1ccccn1)C1CCCc2ccc(-c3cccc(C(F)(F)F)c3)nc21 (stereo not shown) [Compound 284]
22 | C (EC1.5>25 μM) | – | O=C(Nc1cccnc1)C1CCCc2ccc(-c3cccc(C(F)(F)F)c3)nc21 (stereo not shown) [Compound 285]
23 | C (EC1.5>25 μM) | – | O=C(Nc1ccncc1)C1CCCc2ccc(-c3cccc(C(F)(F)F)c3)nc21 (stereo not shown) [Compound 286]
24 | C (EC1.5>25 μM) | – | O=C(NC1CCOCC1)C1CCCc2ccc(-c3cccc(C(F)(F)F)c3)nc21 (stereo not shown) [Compound 287]
25 | C (EC1.5>25 μM) | – | Cc1cc(NC(=O)C2CCCc3ccc(-c4cccc(C(F)(F)F)c4)nc32)no1 (stereo not shown) [Compound 288]
26 | B (EC1.5 10-25 μM) | < 200 | O=C(Nc1cnccn1)C1CCCc2ccc(-c3cccc(C(F)(F)F)c3)nc21 (stereo not shown) [Compound 289]
27 | C (EC1.5>25 μM) | – | Cc1ccnc(NC(=O)C2CCCc3ccc(-c4cccc(C(F)(F)F)c4)nc32)n1 (stereo not shown) [Compound 292]
28 | A (EC1.5<10.0 μM) | > 200 | O=C(Nc1nc(CN2CCOCC2)cs1)C1CCCc2ccc(-c3cccc(C(F)(F)F)c3)nc21 (stereo not shown) [Compound 294]
29 | C (EC1.5>25 μM) | – | O=C(Nc1nc2ccccc2s1)C1CCCc2ccc(-c3cccc(C(F)(F)F)c3)nc21 (stereo not shown) [Compound 295]
30 | C (EC1.5>25 μM) | – | O=C(Nc1ncc(CN2CCCC2)s1)C1CCCc2ccc(-c3cccc(C(F)(F)F)c3)nc21 (stereo not shown) [Compound 296]
31 | C (EC1.5>25 μM) | – | O=C(Nc1cccc(CN2CCOCC2)n1)C1CCCc2ccc(-c3cccc(C(F)(F)F)c3)nc21 (stereo not shown) [Compound 297]
32 | C (EC1.5>25 μM) | – | O=C(Nc1cccc(N2CCOCC2)n1)C1CCOc2ccc(-c3cccc(C(F)(F)F)c3)nc21 (stereo not shown) [Compound 302, N-(6-morpholinopyridin-2-yl)-6-(3-(trifluoromethyl)phenyl)-3,4-dihydro-2H-pyrano[3,2-b]pyridine-4-carboxamide]
33 | C (EC1.5>25 μM) | – | O=C(Nc1ccncn1)C1CCOc2ccc(-c3cccc(C(F)(F)F)c3)nc21 (stereo not shown) [Compound 303]
